“Also recorded” adds a separate entry of the source.
Legend:
Type in all cases: cell-based, human
RIVA cells = assay: Real Time Glo viability screen, Betalutin with PARP or cell cycle kinase inhibitors (Examples 4, 7); conditions: for BLISS analysis, combination with Betalutin versus expected additive effect: significant = more than twice the SD of Betalutin alone
Experimental: (§1) DLBCL cell lines U2932 and RIVA were maintained in RPMI 1640-GlutaMAX medium (Gibco) supplemented with 15% fetal bovine serum (Biowest) and 1% penicillin-streptomycin (Gibco) at 37° C. in a humidified atmosphere containing 5% CO2. Cells were split twice a week 1:7 and diluted 2-4 days before start of the experiment, to ensure they are in exponential growth at the beginning of the experiment.
(§2) Cells were treated in 6-well plates without shaking for 18 h with Betalutin at a final concentration of 1 μg/ml for U2932 and 0.5 μg/ml for RIVA. After treatment, PBS was added to the cells, and the cells pelleted. Cells were first resuspended in 1 ml PBS, then washed twice in PBS and finally diluted in growth medium to a final concentration of 2.5*10^6 cells/ml.
(§3) Cells density measurements were performed the day before seeding. Based on these measurements cells were seeded in 384-well plates at a density of 3000 cells per well in a culturing volume of 25 μl (resulting in start titers: 120 000 cells/ml) using a robot. For measuring viability using Real Time Glo (Promega, WI, USA), the Cell Viability Substrate and NanoLuc® Enzyme were diluted 1:500 in growth medium, and 25 μL of diluted reagents dispensed in each well by a robot. All reagents were equilibrated to 37° C. Cells were incubated with the reaction mix for 1 h at 37° C. before the first measurement of luminescence. Measurements were repeated as often as required within 72 h after adding the reagents. A Tecan SPARK 10M plate reader (Tecan, SUI) was used to measure luminescence, with the integration time set to 1 sec.
(§4) The screen was performed in 384-well plate with selected PARP inhibitors (stock solutions 10 mM in DMSO) acquired from SelleckChem (Selleckchem, TX, USA). To include no-drug controls, the drug panel (Table 6) was divided on two plates. Due to previous observations of cells growing poorly in wells located at the edges of the plates, the two outer most rows and columns were not used. As previously mentioned three different drug concentrations were used in the screen, 10 nM and 1 μM for U2932 and 10 and 100 nM for RIVA.
(§5) Candidate hits were identified using the Bliss Independence test for synergy. The effect of each drug alone at each concentration was calculated as the fraction of dead cells as compared to control cells Fa=(1−(RLUdrug/avgRLUcontrol), a similar calculation was performed for the effect of Betalutin alone Fb=(1−(avgRLUBetalutin/avgRLUcontrol). Through the following equation we found the expected additive effect of the combination of drug+Betalutin: Expected effect (E)Fab=(Fa+Fb−Fa*Fb). We subtracted this expected effect from the measured effect (M)Fab=(1−(RLUDrug+Betalutin/avgRLUcontrol) to get a value (Diff)Fab representing how the measured effect differed from the expected additive effect of the combination. This value was normalized to the survival fraction of drug alone: (Diff)Fab#=(Diff)Fab/(1−Fa). Furthermore, to get a measure of how big the well-to-well variation was, we calculated the standard deviation for the effect of Betalutin alone in the 48 control wells on each plate: (STDEV)Fb=(RLUBetalutin/RLUcontrol)−(averageRLUBetalutin/averageRLUcontrol). Drugs with a value (Diff)Fab#two times higher than the standard deviation of Betalutin treated controls, (STDEV)Fb, were scored as hits.
as §3, with “Measurements were repeated as often as required within 72 h after adding the reagents. A Tecan SPARK 10M plate reader (Tecan, SUI) was used to measure luminescence, with the integration time set to 1 sec.” left out

U-2932 cells [1] = assay: Real Time Glo viability screen and validation, Betalutin with PARP or cell cycle kinase inhibitors (Examples 4, 7); conditions: for BLISS analysis, combination with Betalutin versus expected additive effect: U-2932, significant = more than twice the SD of Betalutin alone
Experimental: as §1, §2, §3, §4, §5
as §3, with “Measurements were repeated as often as required within 72 h after adding the reagents. A Tecan SPARK 10M plate reader (Tecan, SUI) was used to measure luminescence, with the integration time set to 1 sec.” left out

U-2932 cells [2] = assay: as above; conditions: for Effect of monotreatment on proliferation: U-2932, validation screen, 0-1280 nM
[3] = tested on: CD133 and CD44 at the DOHH2 cell surface; assay: Expression of stem cell markers after RIT (flow cytometry); conditions: DOHH2, 6 MBq/mL for 18 h, up to 9 days post-RIT
Experimental: Cells were harvested at 0, 2 h, 18 h and each day from 1 d to 10 d of RIT. At each time point, cells were fixed with PFA 4% for 10 minutes, washed twice with PBS and sterilely stored in PBS at 4° C. Stem cell markers were detected with anti-CD133-FITC (clone: AC133, Milteniy) and anti-CD44-APC (clone: IM7, Merck Millipore). 0.5×10^6 cells were saturated for 1 h in PBS-BSA 0.5%. Next cells were centrifuged and incubated with anti-CD133-FITC (2 μL) and anti-CD44-APC (0.125 μg) for 1 h at room temperature in the dark. Finally, cells were rinsed twice and analysed using Gallios® flow cytometer (Beckman Coulter).
For a preliminary study, investigation of the expression of CD133 and CD44 at the surface of cells treated for 18 h with 6 MBq/mL ^177Lu-lilotomab and ^177Lu-rituximab was done.

Ramos cells [4] = assay: Apoptosis induction (Annexin V/7-AAD, Muse flow cytometer); conditions: 6 MBq/mL radiolabelled mAb for 18 h, peak time 72 h
Experimental: (§6) Cells were harvested at 0, 2 h, 18 h, 1 d, 2 d, 3 d of RIT. At each time point, apoptosis was detected with […] from Merck Millipore (Annexin V Kit with 7-AAD) in the dark for 30 min at room temperature before analysis using Muse® flow cytometer

Rec-1 cells [5] = assay: as above; conditions: Rec-1, 6 MBq/mL radiolabelled mAb for 18 h, peak time 72 h
Experimental: as §6

DOHH2 cells [6] = assay: as above; conditions: DOHH2, 6 MBq/mL radiolabelled mAb for 18 h, peak time 72 h
Experimental: as §6

Ramos cells [7] = assay: Cell cycle analysis (PI, Muse flow cytometer); conditions: 6 MBq/mL, at 24 h
Experimental: (§7) Cells were harvested at day 0, 2 h, 18 h, 1 d, 2 d, 3 d, of RIT then fixed in 70% ethanol at −20° C. for 3 hours and stained with Cell Cycle kit (with PI) reagent from Merck Millipore in the dark for 30 min at room temperature before analysis using a Muse® flow cytometer. The percentage of cells in G0/G1, S and G2/M phases was then calculated (mean of three experiments in triplicate).
(§8) At different times after start of incubation, proteins were extracted to measure the CDK1 phosphorylation levels, in parallel, proliferation was determined and at 18 h and 24 h after start of incubation, the percentage of cells in G2/M was assessed (experiments were performed three time except the cell cycle analysis).
(§9) Cells were harvested at 0 h, 2 h, 18 h, 1 d, 2 d, 3 d, and fixed in 70% ethanol at −20° C. for at least 3 h. After staining with the Muse® Cell Cycle Assay Kit (Merck Millipore, Molsheim, France) using propidium iodide in the dark at room temperature for 30 min, cell cycle distribution was analyzed using a Muse® flow cytometer. The percentage of cells in the G0/G1, S and G2/M was calculated (mean of three experiments in triplicate) and the effect of WEE-1 and MYT-1 kinase inhibitors on the cell cycle was assessed.

Rec-1 cells [8] = assay: Cell cycle analysis (PI, Muse flow cytometer); conditions: Rec-1, 6 MBq/mL, at 24 h
Experimental: as §7, §8, §9

DOHH2 cells [9] = assay: Cell cycle analysis (PI, Muse flow cytometer); conditions: DOHH2, 6 MBq/mL, at 24 h
Experimental: as §7, §8, §9

[10] = RIVA, drug 100 nM + Betalutin 0.5 μg/ml
[11] = U-2932, drug 1 μM + Betalutin 1 μg/ml

Compound	Growth inhibitory effect, drug alone (RIVA cells; RIVA, drug 10 nM)	Growth inhibitory effect, drug combined with Betalutin (RIVA cells; [10])	BLISS analysis, combination with Betalutin versus expected additive effect (RIVA cells; RIVA)	Growth inhibitory effect, drug alone (U-2932 cells [1]; U-2932, drug 10 nM)	Growth inhibitory effect, drug combined with Betalutin (U-2932 cells [1]; [11])	BLISS analysis, combination with Betalutin versus expected additive effect (U-2932 cells [1])	Effect of monotreatment on proliferation (U-2932 cells [2])	also measured
CN(C)Cc1ccc(-c2nc3cccc4c3n2CCNC4=O)cc1 [AG-14361]	only a minor inhibitory effect; also recorded: no growth inhibitory effect	potentiated the proliferation inhibitory effect of Betalutin; also recorded: stronger growth inhibition than AG-14361 alone	strongest combinatory effect	only a minor inhibitory effect; also recorded: no growth inhibitory effect	potentiated the proliferation inhibitory effect of Betalutin; also recorded: stronger growth inhibition than AG-14361 alone	strongest combinatory effect		Growth inhibitory effect, drug combined with Betalutin (RIVA cells; RIVA, drug 10 nM + Betalutin 0.5 μg/ml): did not enhance the growth inhibitory effect of Betalutin; Growth inhibitory effect, drug alone (RIVA cells; RIVA, drug 100 nM): inhibited proliferation; Growth inhibitory effect, drug combined with Betalutin (U-2932 cells [1]; U-2932, drug 10 nM + Betalutin 1 μg/ml): did not enhance the growth inhibitory effect of Betalutin; Growth inhibitory effect, drug alone (U-2932 cells [1]; U-2932, drug 1 μM): inhibited proliferation
CC[C@@H]1C(=O)N(C)c2cnc(Nc3ccc(C(=O)NC4CCN(C)CC4)cc3OC)nc2N1C1CCCC1 [BI2536]			significance was only reached in U-2932 cells			significance was only reached in U-2932 cells	blocked proliferation almost completely at concentrations above 40 nM	inhibition at 0.01 µM (RIVA cells; Homo sapiens, read-out: Inhibition of proliferation, drug alone): > 80%; Drug concentration at which synergism with Betalutin is evident (CI, Chou-Talalay) (U-2932 cells [2]; U-2932, Betalutin 0.5, 1 or 2 μg/ml, day 5): 40 nM; inhibition at 0.01 µM (U-2932 cells [1]; Homo sapiens, U2932, read-out: Inhibition of proliferation, drug alone): > 80%
C[C@@H](Oc1cc(-n2cnc3ccc(CN4CCN(C)CC4)cc32)sc1C(N)=O)c1ccccc1C(F)(F)F [GSK461364]	less potency than BI2536		significantly greater than the expected additive effect	less potency than BI2536		significantly greater than the expected additive effect	blocked proliferation almost completely at concentrations above 40 nM	
COc1cc(Nc2ncc3c(n2)-c2ccc(Cl)cc2C(c2c(F)cccc2OC)=NC3)ccc1C(=O)O [MLN8237]	insufficient to inhibit proliferation	enhanced	significantly greater effect than the expected additive effect	insufficient to inhibit proliferation	enhanced		impaired proliferation at concentrations up to 160 nM	inhibition at 0.1 µM (RIVA cells; Homo sapiens, 144 h, RIVA, drug 100 nM, day 6, read-out: Growth inhibition, drug alone): ~60%; inhibition at 1 µM (U-2932 cells [1]; Homo sapiens, U2932, 144 h, U-2932, drug 1 μM, day 6, read-out: Growth inhibition, drug alone): ~40%
CNCc1ccc(-c2[nH]c3cc(F)cc4c3c2CCNC4=O)cc1 [Rucaparib]		potentiated the proliferation inhibitory effect of Betalutin; also recorded: stronger growth inhibition than Betalutin alone	larger than the expected additive effect		potentiated the proliferation inhibitory effect of Betalutin; also recorded: stronger growth inhibition than Betalutin alone	larger than the expected additive effect		Growth inhibitory effect, drug alone (RIVA cells; RIVA, all tested concentrations (10, 100 nM)): no growth inhibitory effect; Growth inhibitory effect, drug alone (U-2932 cells [1]; U-2932, all tested concentrations (10 nM, 1 μM)): no growth inhibitory effect
^177Lu-rituximab								Proportion of cells expressing CD44 and CD133 [3]: strongly increased; Apoptosis level (Ramos cells [4]): 56±12%; Apoptosis level (Rec-1 cells [5]): 79±16%; Apoptosis level (DOHH2 cells [6]): 97±3%; Proportion of cells showing a G2/M cell cycle arrest (Ramos cells [7]): 56±13%; Proportion of cells showing a G2/M cell cycle arrest (Rec-1 cells [8]): 40±11%; Proportion of cells showing a G2/M cell cycle arrest (DOHH2 cells [9]): 38±2%

From patent publication US20210106703A1, “RADIOIMMUNOCONJUGATES IN COMBINATION WITH OTHER DRUGS AS TREATMENT AGAINST NHL” (Nordic Nanovector ASA, priority 2017, published 2021)
